Measurements reported in patent US20230365546A1, “5-SUBSTITUTED INDOLE 3-AMIDE DERIVATIVES, PREPARATION METHOD AND USE THEREOF” (ORIGIANT PHARMACEUTICAL CO., LTD, priority 2020, published 2023).

What was measured:
MLK1(h) = MLK1(h) (Homo sapiens (Human), UniProt P80192); assay: Kinase Profiler 10 μM panel
Protocol: (§1) In vitro kinase assays were conducted using Kinase Profiler services provided by Eurofins. The experimental method was as follows: the small molecule compound to be tested (0.001-10 μM), the protein kinase to be tested were incubated with a buffer containing substrate, 10 mM magnesium acetate, and [γ-^33P-ATP], the reaction was started by adding Mg\TPmix, after incubation for a period of time at room temperature, a 3% phosphate solution was added to the buffer to stop the reaction. Subsequently, 10 μL of the reaction mixture was quantitatively pipetted onto P30 filter paper, which was washed three times with 75 mM phosphate solution and then once with methanol. The P30 filter paper was air-dried and scintillation fluid was added for scintillation counting.

TTK(h) = TTK(h) (Homo sapiens (Human), UniProt P33981); assay: Kinase Profiler 10 μM panel
Protocol: as §1

Src(T341M)(h) = Src(T341M)(h) (Homo sapiens (Human), UniProt P12931, T341M); assay: Kinase Profiler 10 μM panel
Src(T341M)(h), sequence (P12931 whole entry T341M, looked up): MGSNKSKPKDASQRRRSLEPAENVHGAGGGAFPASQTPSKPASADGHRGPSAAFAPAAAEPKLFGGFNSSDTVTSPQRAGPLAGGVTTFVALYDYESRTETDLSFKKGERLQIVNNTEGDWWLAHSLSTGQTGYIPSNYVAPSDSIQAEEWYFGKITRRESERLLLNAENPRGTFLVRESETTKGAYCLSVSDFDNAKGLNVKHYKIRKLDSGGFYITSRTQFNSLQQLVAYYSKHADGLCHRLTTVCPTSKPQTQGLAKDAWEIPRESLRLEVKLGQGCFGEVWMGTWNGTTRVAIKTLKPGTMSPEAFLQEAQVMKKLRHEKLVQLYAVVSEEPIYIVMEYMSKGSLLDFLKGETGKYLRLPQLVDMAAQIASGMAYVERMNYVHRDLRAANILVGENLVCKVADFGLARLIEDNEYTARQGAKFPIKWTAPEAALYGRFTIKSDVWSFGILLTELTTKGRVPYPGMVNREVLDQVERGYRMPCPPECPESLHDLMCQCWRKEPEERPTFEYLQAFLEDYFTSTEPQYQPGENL
Protocol: as §1

PAK5(h) = PAK5(h) (Homo sapiens (Human), UniProt Q9P286); assay: Kinase Profiler 10 μM panel
PAK5(h), sequence (Q9P286 whole entry): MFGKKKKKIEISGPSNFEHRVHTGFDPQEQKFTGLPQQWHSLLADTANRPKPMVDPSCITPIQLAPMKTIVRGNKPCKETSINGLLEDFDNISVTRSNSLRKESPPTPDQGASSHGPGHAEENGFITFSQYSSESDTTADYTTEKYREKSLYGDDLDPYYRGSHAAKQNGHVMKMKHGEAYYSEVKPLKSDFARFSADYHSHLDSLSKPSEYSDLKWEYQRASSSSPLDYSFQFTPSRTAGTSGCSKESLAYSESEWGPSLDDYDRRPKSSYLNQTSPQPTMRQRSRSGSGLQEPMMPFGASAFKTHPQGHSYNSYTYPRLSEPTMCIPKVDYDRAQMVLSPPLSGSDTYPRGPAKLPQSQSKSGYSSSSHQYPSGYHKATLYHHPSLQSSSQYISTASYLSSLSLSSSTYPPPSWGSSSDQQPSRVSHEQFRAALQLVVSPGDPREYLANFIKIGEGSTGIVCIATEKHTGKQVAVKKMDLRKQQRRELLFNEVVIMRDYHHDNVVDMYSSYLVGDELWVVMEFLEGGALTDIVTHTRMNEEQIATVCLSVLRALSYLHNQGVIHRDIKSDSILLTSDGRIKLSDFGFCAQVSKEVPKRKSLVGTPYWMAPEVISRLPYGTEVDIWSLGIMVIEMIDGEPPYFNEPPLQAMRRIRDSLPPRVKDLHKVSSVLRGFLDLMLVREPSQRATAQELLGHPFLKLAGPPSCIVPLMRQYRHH
Protocol: as §1

BrSK1(h) = BrSK1(h) (Homo sapiens (Human), UniProt Q8TDC3); assay: Kinase Profiler 10 μM panel
Protocol: as §1

STK32B(h) = STK32B(h) (Homo sapiens (Human), UniProt Q9NY57); assay: Kinase Profiler 10 μM panel
STK32B(h), sequence (Q9NY57 whole entry): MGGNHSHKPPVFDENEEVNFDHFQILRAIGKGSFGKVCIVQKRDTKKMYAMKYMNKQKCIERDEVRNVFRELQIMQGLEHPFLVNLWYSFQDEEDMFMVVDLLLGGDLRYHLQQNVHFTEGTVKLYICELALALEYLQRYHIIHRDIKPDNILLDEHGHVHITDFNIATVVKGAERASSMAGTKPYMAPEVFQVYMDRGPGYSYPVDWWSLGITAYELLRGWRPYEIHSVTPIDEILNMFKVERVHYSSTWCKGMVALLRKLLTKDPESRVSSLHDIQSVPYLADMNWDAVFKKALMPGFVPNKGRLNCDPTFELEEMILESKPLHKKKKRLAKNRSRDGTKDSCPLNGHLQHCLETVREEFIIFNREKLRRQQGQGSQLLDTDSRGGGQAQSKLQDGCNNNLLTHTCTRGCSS
Protocol: as §1

cKit(D816H)(h) = cKit(D816H)(h) (Homo sapiens (Human), UniProt P10721, D816H); assay: Kinase Profiler 10 μM panel
Protocol: as §1

Arg(h) = Arg(h) (Homo sapiens (Human), UniProt P42684); assay: Kinase Profiler 10 μM panel
Protocol: as §1

MAP4K4(h) = MAP4K4(h) (Homo sapiens (Human), UniProt O95819); assay: Kinase Profiler 10 μM panel
Protocol: as §1

Abl (H396P)(h) = Abl (H396P)(h) (Homo sapiens (Human), UniProt P00519, H396P); assay: Kinase Profiler 10 μM panel
Protocol: as §1

Hck(h) activated = Hck(h) activated (Homo sapiens (Human), UniProt P08631); assay: Kinase Profiler 10 μM panel
Hck(h) activated, sequence (P08631 whole entry): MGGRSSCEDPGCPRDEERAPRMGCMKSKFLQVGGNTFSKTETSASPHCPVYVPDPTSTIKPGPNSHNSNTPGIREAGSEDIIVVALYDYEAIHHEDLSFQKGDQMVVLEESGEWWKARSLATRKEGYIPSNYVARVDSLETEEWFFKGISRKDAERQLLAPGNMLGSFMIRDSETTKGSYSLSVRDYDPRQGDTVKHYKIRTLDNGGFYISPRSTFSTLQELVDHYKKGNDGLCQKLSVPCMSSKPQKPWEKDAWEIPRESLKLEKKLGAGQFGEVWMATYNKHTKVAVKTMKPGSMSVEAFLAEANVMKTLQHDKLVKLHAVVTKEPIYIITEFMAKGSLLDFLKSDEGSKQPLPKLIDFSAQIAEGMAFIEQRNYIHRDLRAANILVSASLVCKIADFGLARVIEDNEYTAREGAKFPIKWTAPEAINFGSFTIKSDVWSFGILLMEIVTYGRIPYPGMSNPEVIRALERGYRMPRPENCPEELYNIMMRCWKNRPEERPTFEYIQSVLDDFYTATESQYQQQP
Protocol: as §1

TSSK4(h) = TSSK4(h) (Homo sapiens (Human), UniProt Q6SA08); assay: Kinase Profiler 10 μM panel
TSSK4(h), sequence (Q6SA08 whole entry): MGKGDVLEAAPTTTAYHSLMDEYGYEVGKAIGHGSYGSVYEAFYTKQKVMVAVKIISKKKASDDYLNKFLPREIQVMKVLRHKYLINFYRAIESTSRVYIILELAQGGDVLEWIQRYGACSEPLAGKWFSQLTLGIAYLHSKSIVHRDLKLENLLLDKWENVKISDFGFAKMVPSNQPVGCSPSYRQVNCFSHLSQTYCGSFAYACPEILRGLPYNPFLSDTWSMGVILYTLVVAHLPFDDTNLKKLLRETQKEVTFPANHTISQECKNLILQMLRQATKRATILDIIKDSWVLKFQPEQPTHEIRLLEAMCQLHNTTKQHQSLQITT
Protocol: as §1

PDHK2(h) = PDHK2(h) (Homo sapiens (Human), UniProt Q15119); assay: Kinase Profiler 10 μM panel
Protocol: as §1

Abl(T315I)(h) = Abl(T315I)(h) (Homo sapiens (Human), UniProt P00519, T315I); assay: Kinase Profiler 10 μM panel
Protocol: as §1

CDK17/cyclinY(h) = CDK17/cyclinY(h) (Homo sapiens (Human), UniProt Q00537); assay: Kinase Profiler 10 μM panel
Protocol: as §1

CaMKK1(h) = CaMKK1(h) (Homo sapiens (Human), UniProt Q8N5S9); assay: Kinase Profiler 10 μM panel
CaMKK1(h), sequence (Q8N5S9 whole entry): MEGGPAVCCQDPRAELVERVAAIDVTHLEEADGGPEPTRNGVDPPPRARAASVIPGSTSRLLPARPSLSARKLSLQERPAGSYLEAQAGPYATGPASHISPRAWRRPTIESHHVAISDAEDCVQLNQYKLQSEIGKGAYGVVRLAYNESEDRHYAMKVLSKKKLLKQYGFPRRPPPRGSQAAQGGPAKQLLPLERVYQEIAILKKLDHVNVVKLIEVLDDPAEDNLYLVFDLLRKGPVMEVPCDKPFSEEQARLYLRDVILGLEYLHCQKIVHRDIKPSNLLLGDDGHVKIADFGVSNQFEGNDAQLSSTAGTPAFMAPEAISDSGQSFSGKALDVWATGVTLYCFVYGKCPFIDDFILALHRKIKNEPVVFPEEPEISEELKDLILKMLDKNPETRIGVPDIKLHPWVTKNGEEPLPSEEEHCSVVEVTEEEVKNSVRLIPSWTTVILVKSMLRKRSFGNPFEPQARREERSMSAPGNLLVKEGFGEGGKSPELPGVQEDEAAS
Protocol: as §1

CDK14/cyclinY(h) = CDK14/cyclinY(h) (Homo sapiens (Human), UniProt O94921); assay: Kinase Profiler 10 μM panel
Protocol: as §1

Snk(h) = Snk(h) (Homo sapiens (Human), UniProt Q9NYY3); assay: Kinase Profiler 10 μM panel
Protocol: as §1

[1] = In vivo pharmacokinetic study in rats; settings: rat, plasma, oral, 10 mg/kg
Protocol: Blood was collected from rats at different times after administration at the following time points: 0.083 h, 0.25 h, 0.5 h, 1 h, 2 h, 4 h, 8 h, and 24 h after intravenous administration; 0.25 h, 0.5 h, 1 h, 2 h, 4 h, 6 h, 8 h, and 24 h after oral administration. About 0.20 mL of blood was collected via jugular vein or other suitable means for each sample at the corresponding time, with heparin sodium for anticoagulation; the blood sample was placed on ice after collection and centrifuged within 1 h to separate the plasma (centrifugation conditions: centrifugal force 6800 g, 6 min, 2-8° C.). The collected plasma samples were stored in a refrigerator at −80° C. before analysis, and the remaining plasma samples continued to be temporarily stored in the refrigerator at −80° C. for one month after analysis.
Pharmacokinetic parameters such as AUC (0-t), T1/2, Cmax, Tmax, and MRT were calculated using WinNonlin based on plasma concentration data at different time points. The plasma drug concentration-time curve was plotted with BLQ recorded as 0. For the calculation of pharmacokinetic parameters, the concentration before administration was calculated as 0; BLQ before Cmax (including “No peak”) was calculated as 0; no BLQ (including “No peak”) appeared after Cmax participated in the calculation. The experiment was completed by Shanghai Medicilon Inc.

IRAK1(h) = IRAK1(h) (Homo sapiens (Human), UniProt P51617); assay: Kinase Profiler 10 μM panel
IRAK1(h), sequence (P51617 whole entry): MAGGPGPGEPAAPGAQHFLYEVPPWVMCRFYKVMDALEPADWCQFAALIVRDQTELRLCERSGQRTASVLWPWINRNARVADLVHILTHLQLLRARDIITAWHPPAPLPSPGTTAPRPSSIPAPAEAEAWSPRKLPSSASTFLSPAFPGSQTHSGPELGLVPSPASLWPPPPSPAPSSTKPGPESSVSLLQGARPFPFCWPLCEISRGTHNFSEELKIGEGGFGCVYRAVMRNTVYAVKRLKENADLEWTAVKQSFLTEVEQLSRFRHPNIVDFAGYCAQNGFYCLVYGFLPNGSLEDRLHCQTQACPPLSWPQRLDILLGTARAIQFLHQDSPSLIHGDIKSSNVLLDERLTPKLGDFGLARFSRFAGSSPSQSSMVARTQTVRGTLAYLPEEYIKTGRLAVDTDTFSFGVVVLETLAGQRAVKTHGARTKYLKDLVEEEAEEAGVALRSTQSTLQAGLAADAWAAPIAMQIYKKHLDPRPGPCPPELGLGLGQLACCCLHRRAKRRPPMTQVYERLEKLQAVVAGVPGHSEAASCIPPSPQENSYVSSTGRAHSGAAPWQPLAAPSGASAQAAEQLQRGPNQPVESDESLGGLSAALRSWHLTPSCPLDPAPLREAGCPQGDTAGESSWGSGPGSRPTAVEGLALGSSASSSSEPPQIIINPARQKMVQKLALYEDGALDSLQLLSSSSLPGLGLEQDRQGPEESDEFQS
Protocol: as §1

Met(Y1248H)(h) = Met(Y1248H)(h) (Homo sapiens (Human), UniProt P08581, Y1230H); assay: Kinase Profiler 10 μM panel
Protocol: as §1

SNRK(h) = SNRK(h) (Homo sapiens (Human), UniProt Q9NRH2); assay: Kinase Profiler 10 μM panel
Protocol: as §1

MINK(h) = MINK(h) (Homo sapiens (Human), UniProt Q8N4C8); assay: Kinase Profiler 10 μM panel
Protocol: as §1

CaMKI(h) = CaMKI(h) (Homo sapiens (Human), UniProt Q14012); assay: Kinase Profiler 10 μM panel
Protocol: as §1

Fms(h) = Fms(h) (Homo sapiens (Human), UniProt P07333); assay: Kinase Profiler 10 μM panel
Protocol: as §1

IRR(h) = IRR(h) (Homo sapiens (Human), UniProt P14616); assay: Kinase Profiler 10 μM panel
IRR(h), sequence (P14616 27-1297): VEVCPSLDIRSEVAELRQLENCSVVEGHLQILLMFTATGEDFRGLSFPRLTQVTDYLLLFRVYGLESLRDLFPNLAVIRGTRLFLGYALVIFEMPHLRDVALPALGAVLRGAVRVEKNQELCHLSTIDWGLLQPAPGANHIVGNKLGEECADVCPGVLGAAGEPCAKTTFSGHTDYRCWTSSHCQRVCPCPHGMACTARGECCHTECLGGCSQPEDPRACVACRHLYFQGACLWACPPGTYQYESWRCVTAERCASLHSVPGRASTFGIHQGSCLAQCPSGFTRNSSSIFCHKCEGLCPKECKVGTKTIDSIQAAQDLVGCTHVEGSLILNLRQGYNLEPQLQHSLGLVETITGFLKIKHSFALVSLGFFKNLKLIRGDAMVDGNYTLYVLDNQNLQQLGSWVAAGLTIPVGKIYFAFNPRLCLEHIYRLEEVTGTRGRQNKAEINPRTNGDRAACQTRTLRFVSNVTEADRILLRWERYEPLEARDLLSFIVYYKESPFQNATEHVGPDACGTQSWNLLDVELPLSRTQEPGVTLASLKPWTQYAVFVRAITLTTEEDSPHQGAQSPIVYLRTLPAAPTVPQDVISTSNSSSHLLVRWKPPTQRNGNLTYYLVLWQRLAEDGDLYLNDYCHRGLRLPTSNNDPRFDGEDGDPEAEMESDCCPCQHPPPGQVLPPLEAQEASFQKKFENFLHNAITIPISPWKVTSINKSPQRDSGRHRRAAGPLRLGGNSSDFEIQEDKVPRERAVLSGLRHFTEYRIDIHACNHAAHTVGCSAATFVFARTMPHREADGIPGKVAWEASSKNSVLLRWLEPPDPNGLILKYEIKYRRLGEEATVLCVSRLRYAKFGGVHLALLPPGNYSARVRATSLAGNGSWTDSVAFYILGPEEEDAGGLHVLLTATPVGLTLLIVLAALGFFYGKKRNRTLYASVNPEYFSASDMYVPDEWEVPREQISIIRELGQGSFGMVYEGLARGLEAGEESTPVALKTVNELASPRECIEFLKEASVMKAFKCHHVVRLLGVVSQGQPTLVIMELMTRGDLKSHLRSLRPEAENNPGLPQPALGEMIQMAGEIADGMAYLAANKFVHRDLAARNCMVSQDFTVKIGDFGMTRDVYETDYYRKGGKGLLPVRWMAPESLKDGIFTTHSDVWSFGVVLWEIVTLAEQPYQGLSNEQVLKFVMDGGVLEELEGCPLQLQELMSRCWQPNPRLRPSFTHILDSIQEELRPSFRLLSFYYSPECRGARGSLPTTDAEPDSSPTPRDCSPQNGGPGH
Protocol: as §1

DSS-induced colitis = assay: DSS-induced mouse IBD model
Protocol: Female C57BL/6 mice weighing 17-20 g were used. […] Fresh DSS solution was changed on Days 2, 4, and 6, respectively. […] The Control group was given normal drinking water daily and corresponding vehicles orally starting on day 7. Body weights and survival rates of mice were recorded daily. Survival curves were fitted using Graphpad Prism 5.0 software. Mice (2/group) were sacrificed on day 12 and observed for changes in colon length.

What does the source list for `C[C@H](NC(=O)c1c[nH]c2ccc(-c3ccc4nc(NC(=O)C5CC5)sc4c3)cc12)c1cccc(F)c1` [Compound 34, (S)-5-(2-(cyclopropanecarboxamido)benzo[d]thiazol-6-yl)-N-(1-(3-fluorophenyl)ethyl)-1H-indole-3-carboxamide]?
Inhibition ratio (MLK1(h)): 98%; Inhibition ratio (TTK(h)): 55%; Inhibition ratio (Src(T341M)(h)): 36%; Inhibition ratio (PAK5(h)): −2%; Inhibition ratio (BrSK1(h)): −28%; Inhibition ratio (STK32B(h)): −2%; Inhibition ratio (cKit(D816H)(h)): 44%; Inhibition ratio (Arg(h)): 89%; Inhibition ratio (MAP4K4(h)): 98%; Inhibition ratio (Abl (H396P)(h)): 98%; Inhibition ratio (Hck(h) activated): 26%; Inhibition ratio (TSSK4(h)): 13%; Inhibition ratio (PDHK2(h)): 3%; Inhibition ratio (Abl(T315I)(h)): 101%; Inhibition ratio (CDK17/cyclinY(h)): −11%; Inhibition ratio (CaMKK1(h)): 74%; Inhibition ratio (CDK14/cyclinY(h)): 47%; Inhibition ratio (Snk(h)): 0%; AUC(0-t) [1]: 4450 ng·h/mL; Cmax [1]: 852 ng/mL; Tmax [1]: 4 h; bioavailability [1]: 7.89%; half-life [1]: 2.06 h; Inhibition ratio (IRAK1(h)): 32%; Inhibition ratio (Met(Y1248H)(h)): 107%; Inhibition ratio (SNRK(h)): −24%; Inhibition ratio (MINK(h)): 93%; Inhibition ratio (CaMKI(h)): 5%; Inhibition ratio (Fms(h)): 21%; Inhibition ratio (IRR(h)): 50%

Which results are given for `C[C@H](NC(=O)c1cn(C)c2ccc(-c3ccn4nc(NC(=O)C5CC5)nc4c3)cc12)c1cccc(F)c1` [Compound 94, (S)-5-(2-(cyclopropanecarboxamido)-[1,2,4]triazolo[1,5-a]pyridin-7-yl)-N-(1-(3-fluorophenyl)ethyl)-1-methyl-1H-indole-3-carboxamide]?
Death of mice (DSS-induced colitis; 40 mg/kg oral from day 7 after 2.5% DSS): no death by 14 days; Body weight of mice (DSS-induced colitis; 40 mg/kg oral from day 7 after 2.5% DSS, FIG. 6): gradual increase in body weight; Colon length of mice (DSS-induced colitis; 40 mg/kg oral, sacrificed on day 12, FIG. 7): basically equivalent to that of mice in Control group; Therapeutic effect compared with positive drug (DSS-induced colitis; 40 mg/kg oral, vs GSK3145095 40 mg/kg): better therapeutic effect than positive drug GSK3145095; Inhibition ratio/% (MLK1(h)): 94%; Inhibition ratio/% (TTK(h)): 13%; Inhibition ratio/% (Src(T341M)(h)): −6%; Inhibition ratio/% (PAK5(h)): 47%; Inhibition ratio/% (BrSK1(h)): 31%; Inhibition ratio/% (STK32B(h)): 27%; Inhibition ratio/% (cKit(D816H)(h)): 42%; Inhibition ratio/% (Arg(h)): 42%; Inhibition ratio/% (MAP4K4(h)): −3%; Inhibition ratio/% (Abl (H396P)(h)): 34%; Inhibition ratio/% (Hck(h) activated): −12%; Inhibition ratio/% (TSSK4(h)): 49%; Inhibition ratio/% (PDHK2(h)): 32%; Inhibition ratio/% (Abl(T315I)(h)): 33%; Inhibition ratio/% (CDK17/cyclinY(h)): 70%; Inhibition ratio/% (CaMKK1(h)): 35%; Inhibition ratio/% (CDK14/cyclinY(h)): 55%; Inhibition ratio/% (Snk(h)): 1%; AUC(0-t) [1]: 1850 ng·h/mL; Cmax [1]: 330 ng/mL; Tmax [1]: 1.67 h; bioavailability [1]: 12.1%; half-life [1]: 7.02 h; Inhibition ratio/% (IRAK1(h)): 23%; Inhibition ratio/% (Met(Y1248H)(h)): −11%; Inhibition ratio/% (SNRK(h)): 25%; Inhibition ratio/% (MINK(h)): 53%; Inhibition ratio/% (CaMKI(h)): 49%; Inhibition ratio/% (Fms(h)): 22%; Inhibition ratio/% (IRR(h)): 33%
